# In patent publication US4755598A, “1 '-(substituted)ethyl-7β-[2-(2-aminothiazol-4-yl)acetamido]-3-[[[1-(2 -dimethylaminoethyl)-1H-tetrazol-5-yl]thio]methyl]ceph-3-em-4-carboxylate derivatives having antibacterial utility” (Takeda Chemical Industries, Ltd., priority 1983, dated 1988):
# Where two headings read alike, the source gives them in different places.
# How the values were obtained:
# [1] = mouse, in vivo; for Plasma level of non-ester compound / AUC: po, 100 mg/kg
# Experimental: The compounds of Examples 2, 4, 6, 7 and 8 and the 1-(ethoxycarbonyloxy)ethyl ester of compound [II] (briefly, compound A) are each administered orally to a mouse in a dose of 100 mg/kg in terms of non-ester compound, i.e., compound [II]. At 0.25, 0.5, 1.0 and 2.0 hours after administration, the concentration of the non-ester compound in the mouse plasma is determined by the cup assay using Proteus mirabilis Eb313 as the test organism and the area under the concentration-time curve for 0-2 hours (AUC) is calculated.
# As control, the non-ester compound is administered subcutaneously to a mouse and the AUC value is similarly calculated.
# [2] = test system: bacteria; conditions: cited from earlier work
# [3] = test system: gram-positive bacteria such as Staphylococcus aureus; conditions: cited from earlier work
# [4] = test system: gram-negative bacteria such as Escherichia coli, Klebsiella pneumoniae, Proteus vulgaris, Proteus mirabilis and Proteus morganii; conditions: cited from earlier work
SMILES,Bioavailability ([1]; 120 min),Plasma level of non-ester compound ([1]; 15 min),Plasma level of non-ester compound ([1]; 30 min),Plasma level of non-ester compound ([1]; 60 min),AUC ([1]; 120 min),Plasma level of non-ester compound ([1]; 120 min),"Bioavailability ([1]; sc, 120 min)",antibacterial activity [2],antibacterial activity [3],antibacterial activity [4]
"CCOC(=O)OC(C)OC(=O)C1=C(CSc2nnnn2CCN(C)C)CS[C@@H]2[C@H](NC(=O)Cc3csc(N)n3)C(=O)N12 (stereo partly shown) [Compound A, 1-(ethoxycarbonyloxy)ethyl ester of compound [II], reference compound]",23.9%,14700 ng/mL,9200 ng/mL,2400 ng/mL,9280 ng·h/mL,700 ng/mL,,,,
"CC(C)CCOC(=O)OC(C)OC(=O)C1=C(CSc2nnnn2CCN(C)C)CS[C@@H]2[C@H](NC(=O)Cc3csc(N)n3)C(=O)N12 (stereo partly drawn) [Example 2, 1-(3-Methylbutoxycarbonyloxy)ethyl 7β-[2-(2-aminothiazol-4-yl)acetamido]-3-[[[1-(2-dimethylaminoethyl)-1H-tetrazol-5-yl]thio]methyl]ceph-3-em-4-carboxylate]",90.8%,65800 ng/mL,28600 ng/mL,9660 ng/mL,35300 ng·h/mL,1680 ng/mL,,,,
"CCC(CC)COC(=O)OC(C)OC(=O)C1=C(CSc2nnnn2CCN(C)C)CS[C@@H]2[C@H](NC(=O)Cc3csc(N)n3)C(=O)N12 (stereo partly drawn) [Example 4, 1-(2-Ethylbutoxycarbonyloxy)ethyl 7β-[2-(2-aminothiazol-4-yl)acetamido]-3-[[[1-(2-dimethylaminoethyl)-1H-tetrazol-5-yl]thio]methyl]ceph-3-em-4-carboxylate]",83.6%,43900 ng/mL,39500 ng/mL,8730 ng/mL,32400 ng·h/mL,220 ng/mL,,,,
"CCCC(C)COC(=O)OC(C)OC(=O)C1=C(CSc2nnnn2CCN(C)C)CS[C@@H]2[C@H](NC(=O)Cc3csc(N)n3)C(=O)N12 (stereo partly drawn) [Example 6, 1-(2-Methylpentyloxycarbonyloxy)ethyl 7β-[2-(2-aminothiazol-4-yl)acetamido]-3-[[[1-(2-dimethylaminoethyl)-1H-tetrazol-5-yl]thio]methyl]ceph-3-em-4-carboxylate]",80.1%,50200 ng/mL,31000 ng/mL,7310 ng/mL,31100 ng·h/mL,2860 ng/mL,,,,
"CC(OC(=O)OCC(C)(C)C)OC(=O)C1=C(CSc2nnnn2CCN(C)C)CS[C@@H]2[C@H](NC(=O)Cc3csc(N)n3)C(=O)N12 (stereo partly drawn) [Example 7, 1-(2,2-Dimethylpropoxycarbonyloxy)ethyl 7β-[2-(2-aminothiazol-4-yl)acetamido]-3-[[[1-(2-dimethylaminoethyl)-1H-tetrazol-5-yl]thio]methyl]ceph-3-em-4-carboxylate]",92.0%,65700 ng/mL,34500 ng/mL,7230 ng/mL,35700 ng·h/mL,1860 ng/mL,,,,
"CCCC(C)OC(=O)OC(C)OC(=O)C1=C(CSc2nnnn2CCN(C)C)CS[C@@H]2[C@H](NC(=O)Cc3csc(N)n3)C(=O)N12 (stereo partly drawn) [Example 8, 1-(1-Methylbutoxycarbonyloxy)ethyl 7β-[2-(2-aminothiazol-4-yl)acetamido]-3-[[[1-(2-dimethylaminoethyl)-1H-tetrazol-5-yl]thio]methyl]ceph-3-em-4-carboxylate]",110.6%,62700 ng/mL,48900 ng/mL,11200 ng/mL,42500 ng·h/mL,860 ng/mL,,,,
"CN(C)CCn1nnnc1SCC1=C(C(=O)O)N2C(=O)[C@@H](NC(=O)Cc3csc(N)n3)[C@H]2SC1 [compound [II], 7β-[2-(2-aminothiazol-4-yl)acetamido]-3-[[[1-(2-dimethylaminoethyl]-1H-tetrazol-5-yl]thio]methyl]ceph-3-em-4-carboxylic acid]",,,,,,,100%,strong antibacterial activity,potent antibacterial activity,potent antibacterial activity
